Laboratory results as given in patent publication US8435976B2, “4-substituted pyridin-3-yl-carboxamide compounds and methods of use” (F. Hoffmann-La Roche, priority 2009, dated 2013).
pEC50, pKi: −log10 of the molar value.

How the values were obtained:
[1] = target: T1, PIM3 (Homo sapiens, UniProt Q86V86); test: Pim-3 kinase enzymatic assay (Caliper LC3000, FAM-Pimtide substrate); type: biochemical; conditions: 55 pM PIM3, 10 μM ATP, 90 minutes; read-out: PIM3 LC3K (Ki)
T1 construct: made in house
Procedure: (§1) Reaction Buffer contained 10 mM HEPES, pH 7.2, 10 mM MgCl2, 0.01% Tween 20, 2 mM DTT.
(§2) PIM reactions were carried out in a final volume of 10 μL per well in a 384-well plate. […] The separation of product and substrate was optimized by choosing voltages and pressure using Caliper's Optimizer software (Hopkinton, Mass.). The separation conditions used a downstream voltage of −500V, an upstream voltage of −2150V, and a screening pressure of −1.2 psi. […] Substrate conversion was calculated from the electrophoregram using HTS Well Analyzer software (Caliper Life Sciences, Hopkinton, Mass.). Ki values for the test compound were calculated.

[2] = system: MM1.S cells; test: MM1.S cell proliferation, 72 hours (Cell Titer Glo); type: cell-based; conditions: Homo sapiens, 72 hours, read-out: Prolif MM1S ATP (EC50)
Procedure: (§3) BaF3 parental line was obtained from the DSMZ repository. BaF3 lines transfected with PIM1 or PIM2 were generated. Mouse IL-3 was purchased from R&D Systems. G418 was purchased from Clontech. Media for BaF3 parental line contained RPMI, 10% FBS, 2 mM L-Glutamine, 2 ng/mL mIL-3. Media for BaF3 PIM1 & 2 lines contained RPMI, 10% FBS, 2 mM L-Glutamine, […]. Media for MM1.S line contained RPMI, 10% FBS, 2 mM L-Glutamine.
(§4) BaF3 parental cells, BaF3 PIM1 cells, BaF3 PIM2 cells, and MM1.S cells were seeded at 2 k/well, 5 k/well, 5 k/well, and 10 k/well respectively, in a 384-well plate, at 45 μL/well. Test compound was added at 5 μL/well. BaF3 cells (parental and transfected) were incubated overnight, while MM1.S cells were incubated for 72 hours at 37° C., 5% CO2. Cell Titer Glo Reagent (Promega) was added at 50 μL/well, the plates were incubated for 30 minutes, and their luminescence read on an HT Analyst. IC50/EC50 values for the test compound were calculated.

[3] = target: BaF3 PIM2 cells (Homo sapiens, UniProt Q9P1W9); test: BaF3 PIM2 cell proliferation (Cell Titer Glo); type: cell-based; conditions: incubated overnight; read-out: Prolif BaF3_PIM2 (IC50)
BaF3 PIM2 cells, sequence (Q9P1W9 whole entry, change not shown): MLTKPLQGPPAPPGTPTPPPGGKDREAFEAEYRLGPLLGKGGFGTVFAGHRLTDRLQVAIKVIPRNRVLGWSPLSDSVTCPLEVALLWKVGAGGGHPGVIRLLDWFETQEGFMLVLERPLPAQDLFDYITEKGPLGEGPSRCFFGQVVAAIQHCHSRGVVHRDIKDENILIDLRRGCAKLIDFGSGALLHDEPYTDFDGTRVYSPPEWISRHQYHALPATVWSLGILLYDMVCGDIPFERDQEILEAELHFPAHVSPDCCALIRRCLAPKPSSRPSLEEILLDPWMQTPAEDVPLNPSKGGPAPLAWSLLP
Procedure: as §3, §4

[4] = target: T2, PIM2 (Homo sapiens, UniProt Q9P1W9); test: Pim-2 kinase enzymatic assay (Caliper LC3000, FAM-Pimtide substrate); type: biochemical; conditions: 50 pM PIM2, 10 μM ATP, 90 minutes; read-out: PIM2 LC3K (Ki)
T2 construct: made in house
T2 sequence (Q9P1W9 whole entry): as the sequence (Q9P1W9 whole entry, change not shown) above
Procedure: as §1, §2

[5] = target: BaF3 PIM1 cells (Homo sapiens, UniProt P11309); test: BaF3 PIM1 cell proliferation (Cell Titer Glo); type: cell-based; conditions: incubated overnight; read-out: Prolif BaF3_PIM1 (IC50)
BaF3 PIM1 cells, sequence (P11309 whole entry, change not shown): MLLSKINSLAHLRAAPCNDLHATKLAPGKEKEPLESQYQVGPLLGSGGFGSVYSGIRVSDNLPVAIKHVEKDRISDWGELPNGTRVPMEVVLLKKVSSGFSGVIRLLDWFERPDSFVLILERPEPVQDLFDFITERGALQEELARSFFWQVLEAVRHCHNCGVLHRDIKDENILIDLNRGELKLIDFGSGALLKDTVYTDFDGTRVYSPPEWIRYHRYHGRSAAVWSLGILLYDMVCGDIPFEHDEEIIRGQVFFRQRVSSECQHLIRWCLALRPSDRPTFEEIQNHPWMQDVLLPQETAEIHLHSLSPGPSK
Procedure: as §3, §4

[6] = target: T3, PIM1 (Homo sapiens, UniProt P11309); test: Pim-1 kinase enzymatic assay (Caliper LC3000, FAM-Pimtide substrate); type: biochemical; conditions: 20 pM PIM1, 10 μM ATP, 90 minutes; read-out: PIM1 LC3K (Ki)
T3 construct: made in house
T3 sequence (P11309 whole entry): as the sequence (P11309 whole entry, change not shown) above
Procedure: as §1, §2

With `COc1cc(F)c(-c2nc(C(=O)Nc3cnccc3N3CCC[C@H](N)C3)c(N)s2)c(F)c1` [Example 34, (S)-5-amino-N-(4-(3-aminopiperidin-1-yl)pyridin-3-yl)-2-(2,6-difluoro-4-methoxyphenyl)thiazole-4-carboxamide] the pKi [1] was 10.66, the pEC50 [2] was 7.25 and the GI50 [3] was greater than 2500 nM. The pKi [4] was 10.02, the GI50 [5] was 19.1 nM and the pKi [6] was 10.92.

In the case of `Nc1sc(-c2cc(F)ccc2F)nc1C(=O)Nc1cnccc1N1CCC[C@H](N)C1` [Example 41, (S)-5-amino-N-(4-(3-aminopiperidin-1-yl)pyridin-3-yl)-2-(2,5-difluorophenyl)thiazole-4-carboxamide], the pKi [1] was 10.66, the pEC50 [2] was 5.70 and the GI50 [3] was 3900 nM. It also gave a pKi [4] of 9.68, a GI50 [5] of 69 nM and a pKi [6] of 10.31.

`CN(C)C(=O)c1ccc(F)c(-c2nc(C(=O)Nc3cnccc3N3CCC[C@H](N)C3)cs2)c1` [Example 47, (S)-N-(4-(3-aminopiperidin-1-yl)pyridin-3-yl)-2-(5-(dimethylcarbamoyl)-2-fluorophenyl)thiazole-4-carboxamide] was tested, and the pKi [1] was 8.68, the pEC50 [2] was less than 4.70 and the GI50 [3] was greater than 20000 nM. The pKi [4] was 7.22, the GI50 [5] was 3900 nM and the pKi [6] was 8.40.

Compound `Nc1sc(-c2c(Cl)cccc2Cl)nc1C(=O)Nc1cnccc1N1CCC[C@H](N)C1` [Example 58, (S)-5-amino-N-(4-(3-aminopiperidin-1-yl)pyridin-3-yl)-2-(2,6-dichlorophenyl)thiazole-4-carboxamide] has a pKi [1] of 9.26, a pEC50 [2] of 5.51 and a GI50 [3] of 6500 nM. For the same compound, the pKi [4] was 8.73, the GI50 [5] was 232 nM and the pKi [6] was 9.05.

With `Cc1ccc(-c2nc(C(=O)Nc3cnccc3N3CCC[C@H](N)C3)c(N)s2)cc1` [Example 30, (S)-5-amino-N-(4-(3-aminopiperidin-1-yl)pyridin-3-yl)-2-(4-tolylthiazole)-4-carboxamide] the pKi [1] was 10.48, the pEC50 [2] was 6.79 and the GI50 [3] was greater than 5000 nM. It also gave a pKi [4] of 9.37, a GI50 [5] of 52.2 nM and a pKi [6] of 10.12.

`Nc1sc(-c2ncccc2F)nc1C(=O)Nc1cnccc1N1CCC[C@H](N)C1` [Example 66, (S)-5-amino-N-(4-(3-aminopiperidin-1-yl)pyridin-3-yl)-2-(3-fluoropyridin-2-yl)thiazole-4-carboxamide] showed a pKi [1] of 10.66, a pEC50 [2] of 5.55 and a GI50 [3] of 2100 nM. It also gave a pKi [4] of 10.05, a GI50 [5] of 40.6 nM and a pKi [6] of 10.30.

Work on `COc1ccc(-c2nc(C(=O)Nc3cnccc3N3CCC[C@H](N)C3)c(N)s2)c(F)c1` [Example 35, (S)-5-amino-N-(4-(3-aminopiperidin-1-yl)pyridin-3-yl)-2-(2-fluoro-4-methoxyphenyl)thiazole-4-carboxamide] yielded a pKi [1] of 8.95, a pEC50 [2] of 5.64 and a GI50 [3] of 2000 nM. The pKi [4] was 8.28, the GI50 [5] was 29.3 nM and the pKi [6] was 9.15.

Work on `Nc1sc(-c2ccccc2F)nc1C(=O)Nc1cnccc1N1C[C@@H](N)C[C@@H](F)C1` [Example 62, 5-amino-N-(4-((3S,5R)-3-amino-5-fluoropiperidin-1-yl)pyridin-3-yl)-2-(2-fluorophenyl)thiazole-4-carboxamide] yielded a pKi [1] of 9.49, a pEC50 [2] of 6.44 and a GI50 [3] of 10400 nM. For the same compound, the pKi [4] was 8.05, the GI50 [5] was 6000 nM and the pKi [6] was 8.87.

In the case of `Cc1cccc(-c2nc(C(=O)Nc3cnccc3N3CCC[C@H](N)C3)c(N)s2)c1` [Example 31, (S)-5-amino-N-(4-(3-aminopiperidin-1-yl)pyridin-3-yl)-2-(3-tolylthiazole)-4-carboxamide], the pKi [1] was 10.64, the pEC50 [2] was 5.89 and the GI50 [3] was 2300 nM. The pKi [4] was 9.47, the GI50 [5] was 66.5 nM and the pKi [6] was 10.33.

Work on `Nc1sc(-c2cn[nH]c2)nc1C(=O)Nc1cnccc1N1CCC[C@H](N)C1` [Example 56, (S)-5-amino-N-(4-(3-aminopiperidin-1-yl)pyridin-3-yl)-2-(1H-pyrazol-4-yl)thiazole-4-carboxamide] yielded a pKi [1] of 10.10, a pEC50 [2] of 6.02 and a GI50 [3] greater than 20000 nM. For the same compound, the pKi [4] was 9.18, the GI50 [5] was 1500 nM and the pKi [6] was 9.94.

Work on `Nc1sc(-c2ccccc2Cl)nc1C(=O)Nc1cnccc1N1CCC[C@H](N)C1` [Example 2, (S)-5-amino-N-(4-(3-aminopiperidin-1-yl)pyridin-3-yl)-2-(2-chlorophenyl)thiazole-4-carboxamide] yielded a pKi [1] of 10.69, a pEC50 [2] of 6.66 and a GI50 [3] of 2000 nM. It also gave a pKi [4] of 9.90, a GI50 [5] of 67.2 nM and a pKi [6] of 10.45.

Compound `CCOc1ccc(F)c(-c2nc(C(=O)Nc3cnccc3N3CCC[C@H](N)C3)c(N)s2)c1F` [Example 26, (S)-5-amino-N-(4-(3-aminopiperidin-1-yl)pyridin-3-yl)-2-(3-ethoxy-2,6-difluorophenyl)thiazole-4-carboxamide] has a pKi [1] of 10.66, a pEC50 [2] of 6.83 and a GI50 [3] of 2400 nM. The pKi [4] was 9.82, the GI50 [5] was 28.2 nM and the pKi [6] was 10.85.

Compound `CN(C)C(=O)c1ccc(F)c(-c2nc(C(=O)Nc3cnccc3N3CCC[C@H](N)C3)c(N)s2)c1` [Example 18, (S)-5-amino-N-(4-(3-aminopiperidin-1-yl)pyridin-3-yl)-2-(5-(dimethylcarbamoyl)-2-fluorophenyl)thiazole-4-carboxamide] has a pKi [1] of 10.48, a pEC50 [2] of 6.12 and a GI50 [3] of 12300 nM. It also gave a pKi [4] of 9.22, a GI50 [5] of 257 nM and a pKi [6] of 10.02.

In the case of `Nc1sc(-c2cc(Cl)ccc2F)nc1C(=O)Nc1cnccc1N1CCC[C@H](N)C1` [Example 23, (S)-5-amino-N-(4-(3-aminopiperidin-1-yl)pyridin-3-yl)-2-(5-chloro-2-fluorophenyl)thiazole-4-carboxamide], the pKi [1] was 10.51, the pEC50 [2] was 6.86 and the GI50 [3] was 1800 nM. The pKi [4] was 9.82, the GI50 [5] was 2500 nM and the pKi [6] was 10.47.

In the case of `COc1ccccc1-c1nc(C(=O)Nc2cnccc2N2CCC[C@H](N)C2)c(N)s1` [Example 39, (S)-5-amino-N-(4-(3-aminopiperidin-1-yl)pyridin-3-yl)-2-(2-methoxyphenyl)thiazole-4-carboxamide], the pKi [1] was 9.84, the pEC50 [2] was 5.49 and the GI50 [3] was 5100 nM. For the same compound, the pKi [4] was 8.77, the GI50 [5] was 375 nM and the pKi [6] was 9.51.

Compound `CC(C)NC(=O)c1ccc(F)c(-c2nc(C(=O)Nc3cnccc3N3CCC[C@@H](N)C3)c(N)s2)c1` [Example 53, (R)-5-amino-N-(4-(3-aminopiperidin-1-yl)pyridin-3-yl)-2-(2-fluoro-5-(isopropylcarbamoyl)phenyl)thiazole-4-carboxamide] has a pKi [1] of 9.84, a pEC50 [2] of 6.18 and a GI50 [3] of 7600 nM. For the same compound, the pKi [4] was 9.08, the GI50 [5] was 273 nM and the pKi [6] was 9.68.

Work on `Nc1sc(-c2cn3ccccc3n2)nc1C(=O)Nc1cnccc1N1CCC[C@H](N)C1` [Example 19, (S)-5-amino-N-(4-(3-aminopiperidin-1-yl)pyridin-3-yl)-2-(imidazo[1,2-a]pyridin-2-yl)thiazole-4-carboxamide] yielded a pEC50 [2] of 5.49, a GI50 [3] greater than 20000 nM and a pKi [4] of 8.45. It also gave a GI50 [5] of 581 nM and a pKi [6] of 9.13.

For `Nc1sc(-c2ccncc2)nc1C(=O)Nc1cnccc1N1CCC[C@H](N)C1` [Example 33, (S)-5-amino-N-(4-(3-aminopiperidin-1-yl)pyridin-3-yl)-2-(pyridin-4-yl)thiazole-4-carboxamide], the pEC50 [2] was 5.46, the GI50 [3] was 13300 nM and the pKi [4] was 8.60. It also gave a GI50 [5] of 410 nM and a pKi [6] of 9.22.
